Reference: patent US20180193294A1, “Dehydroabietic acid (DHAA) derivatives for use as ion channel openers” (priority 2015, published 2018)
“Also recorded” adds a separate entry of the source.

How the values were obtained:
Format in all cases: cell-based
HL-1 cells = test: Membrane potential and firing of spontaneously beating HL-1 cells, whole-cell current clamp; conditions: 10 uM
Method: All conventional chemicals were purchased from Sigma-Aldrich (Stockholm, Sweden). The DHAA derivatives were diluted in ethanol in a 100 mM stock solution. The stock solutions were stored at −20 t for further use.
The cell culture was done according to a previous study (Claycomb et al., Proceedings of the National Academy of Sciences of the United States of America 1998; 95:2979-2984). In brief, cells were grown on gelating fibronectin coated T75 flasks. They were maintained in Claycomb Medium which was supplemented with 10% fetal bovine serum, 2 mM L-glutamine, 0.1 mM noradrenaline, and 100 U/ml, 100 μg/ml penicillin-streptomycin. Enzymatic dissociation with 0.05% trypsin-EDTA was done after full confluence. Isolated cells were plated on fibronectin-gelatin coated plastic coverslips and used for recording.
Whole-cell current-clamp recordings were done on confluent cells at 35±1° C., using an Axopatch 200B amplifier (Molecular Devices, Sunnyvale, Calif.). Patch pipettes were fabricated from borosilicate capillary glass on a vertical pipette puller and had resistances of 3-5 MO. Data were stored on a computer through Digidata 1440A interface (Molecular Devices), and was analyzed with pCLAMP software (version 10.1, Molecular Devices). The bath solution contained the following (in mM): 140 NaCl, 5.4 KCl, 1 MgCl2, 1.8 CaCl2, 10 HEPES, and 10 glucose (pH adjusted to 7.4 with NaOH). The micropipettes were filled with a solution containing (in mM): 130 K-gluconate, 9 KCl, 8 NaCl, 1 MgCl2, 10 EGTA, 10 HEPES, and 3 Na2ATP (pH adjusted to 7.3 with KOH).

3R Shaker K channel = 3R Shaker K channel (Drosophila melanogaster, UniProt P08510, A359R/M356R); test: physchem; conditions: for compound-induced G(V) shift (mean±SEM) / G(V) shift: pH 7.4, Xenopus oocytes; for G(V) shift: Table 1; for Effects on K channel Mean ± SEM: Table 2, K channel expressed in Xenopus oocytes; for ΔG(V) of representative G(V) curves (single examples): pH 7.4, same cells as representative traces; for relative current amplitude: representative traces at voltage giving 10% of maximum conductance in control
3R Shaker K channel, sequence (P08510 whole entry M356R/A359R): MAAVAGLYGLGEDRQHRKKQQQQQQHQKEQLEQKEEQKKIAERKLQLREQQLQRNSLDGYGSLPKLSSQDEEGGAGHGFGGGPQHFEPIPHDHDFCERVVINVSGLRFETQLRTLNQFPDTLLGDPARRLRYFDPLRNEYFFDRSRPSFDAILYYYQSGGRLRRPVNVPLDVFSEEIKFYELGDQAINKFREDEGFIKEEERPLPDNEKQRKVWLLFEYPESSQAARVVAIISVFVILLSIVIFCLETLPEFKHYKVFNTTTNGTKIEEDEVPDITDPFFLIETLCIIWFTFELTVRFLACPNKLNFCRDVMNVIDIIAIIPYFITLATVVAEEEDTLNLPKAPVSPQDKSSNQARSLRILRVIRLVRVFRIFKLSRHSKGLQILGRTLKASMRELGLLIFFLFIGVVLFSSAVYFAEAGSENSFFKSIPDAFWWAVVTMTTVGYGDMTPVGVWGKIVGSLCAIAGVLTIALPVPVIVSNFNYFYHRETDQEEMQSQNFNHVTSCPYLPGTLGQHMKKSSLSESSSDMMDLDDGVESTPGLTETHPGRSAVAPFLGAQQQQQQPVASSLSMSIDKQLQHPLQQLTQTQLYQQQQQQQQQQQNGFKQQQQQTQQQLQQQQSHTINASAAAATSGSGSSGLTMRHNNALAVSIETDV
From the text: A 3R Shaker K channel is a modified Shaker K channel where residues 356 and 359 are mutated to arginines.
(§1) All animal experiments were approved by the local Animal Care and Use Committee and followed international guidelines. A modified Shaker H4 channel^30, with removed N-type inactivation (ShH4IR)^31, here called the wild type (WT) channel, was expressed in oocytes. In addition, a modified 3R Shaker K channel where two introduced positive charged arginines (M356R and A359R) in addition to one native arginine (R362) makes the channel more sensitive to DHA^16, was expressed in oocytes and in a CHO—K1 stable cell line.
(§2) African clawed frogs (Xenopus laevis) were anesthetized with 1.4 g/L ethyl 3-aminobenzoate methanesulfonate salt (tricaine). After an incision through the abdomen a batch of oocytes were removed. Clusters of oocytes were separated by incubation for ˜1 h in a Ca-free O—R2 solution (in mM: 82.5 NaCl, 2 KCl, 5 HEPES, and 1 MgCl2; pH adjusted to 7.4 by NaOH) containing Liberase Blendzyme. The oocytes were then incubated at 8° C. in a modified Barth's solution (MBS; in mM: 88 NaCl, 1 KCl, 2.4 NaHCO3, 15 HEPES, 0.33 Ca(NO3)2, 0.41 CaCl2, and 0.82 MgSO4; pH adjusted to 7.6 by NaOH) supplemented with penicillin (25 U/ml), streptomycin (25 μg/ml), and sodium pyruvate (2.5 mM) 2-24 hours before injection. Fifty nl of cRNA (50 pg) were injected into each oocyte using a Nanoject injector (Drummond Scientific, Broomall, Pa.). Injected oocytes were kept at 8° C. in MBS until one day before electrophysiological recordings, when they were incubated at 16° C. All chemicals were supplied from Sigma-Aldrich (Stockholm, Sweden) if not stated otherwise.
(§3) All manual electrophysiological recordings were performed at room temperature (20-23° C.), using a GeneClamp 500B amplifier (for oocytes) or a Axopatch 200B amplifier (for manual patch clamp of CHO—K1 cells and DRG neurons) and a Digidata 1440A digitizer and pClamp 10 software (all from Molecular Devices, Inc., Sunnyvale, Calif., USA). Compounds were dissolved to 100 mM in 99.5% EtOH and stored at −20° C. Compounds were diluted in extracellular solution to the desired test concentration.
(§4) The oocyte was placed in a bath surrounded by 1K extracellular solution that contained (in mM): 88 NaCl, 1 KCl, 15 HEPES, 0.4 CaCl2, and 0.8 MgCl2, pH adjusted to 7.4 by NaOH (reaching a sodium concentration of ˜100 mM). Control solution was added to the bath with a gravity driven perfusion system. Compound solution was added to the bath manually with a syringe. Two glass microelectrodes were inserted into the oocyte using micromanipulators. […] All channels were closed when the potential was clamped to −80 mV and this voltage was set as the holding potential. Currents were evoked from the holding potential of −80 mV by 100-ms long, 5-mV steps ranging from −80 up to +50 mV (WT) and +70 mV (3R).
(§5) Conductance GK(V) was calculated as GK(V)=[…], (Eq. 1) where IK is the average current from the steady-state phase at the end of each 100-ms pulse, V is the membrane voltage, and Vrev is the reversal potential for K^+, (set to −80 mV for the oocytes, and calculated to be −89 mV for the CHO—K1 cells).
(§6) G(V)=A/(1+exp((V1/2−V)/s))^n (Eq. 2) where A is amplitude of the curve, V is the absolute membrane voltage, V1/2 is the midpoint, s is the slope and n is an exponent set to 4^17. The compound-induced G(V) shift was determined at the 10% level of the maximum conductance in control solution^17. The compound-induced G(V) shift in CHO—K1 was quantified by subtracting the control V1/2 from the compound V1/2 when n was set to 1.
(§7) Data for concentration and pH dependent G(V) shifts (ΔV) in oocytes were fit with a dose-response equation ΔV=ΔVmax/(1+c1/2/c), (Eq. 3) where Δvmax is the maximal shift, c1/2 is half maximal effective concentration/pKa value and c is the concentration.

WT Shaker K channel = WT Shaker K channel (Drosophila melanogaster, UniProt P08510, DEL6-46); test: physchem; conditions: 100 μM; for G(V) shift for WT: pH 7.4, Xenopus oocytes
WT Shaker K channel, sequence (P08510 other isoform, or with tags, fused parts or gaps DEL6-46): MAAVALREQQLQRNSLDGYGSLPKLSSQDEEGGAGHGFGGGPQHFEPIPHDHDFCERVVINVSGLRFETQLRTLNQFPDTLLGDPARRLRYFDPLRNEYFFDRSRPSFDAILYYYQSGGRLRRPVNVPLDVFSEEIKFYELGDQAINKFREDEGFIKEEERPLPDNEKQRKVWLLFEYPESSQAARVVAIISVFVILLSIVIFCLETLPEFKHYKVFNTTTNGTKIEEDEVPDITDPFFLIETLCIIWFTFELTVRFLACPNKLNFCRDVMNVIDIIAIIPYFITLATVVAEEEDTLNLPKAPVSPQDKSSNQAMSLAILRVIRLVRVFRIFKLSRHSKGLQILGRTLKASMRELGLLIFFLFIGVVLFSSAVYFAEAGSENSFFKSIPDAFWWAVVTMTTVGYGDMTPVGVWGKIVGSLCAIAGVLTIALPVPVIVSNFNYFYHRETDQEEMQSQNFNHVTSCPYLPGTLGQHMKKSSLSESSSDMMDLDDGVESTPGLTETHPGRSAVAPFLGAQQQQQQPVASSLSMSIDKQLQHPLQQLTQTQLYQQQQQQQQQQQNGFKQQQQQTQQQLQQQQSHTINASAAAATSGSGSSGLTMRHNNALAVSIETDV
From the text: A Shaker K channel is a Kv channel from the fruit fly Drosophila melanogaster. It is homologous to the human Kv1-type ion channels.
as §1, §2, §3, §4, §5, §6, §7

CO/N=C1\CC2[C@](C)(C(=O)O)CCC[C@]2(C)c2cc(Cl)c(C(C)C)cc21 (stereo partly drawn) [Wu69, (1R,4aS,E)-6-chloro-7-isopropyl-9-methoxyimino-1,4a-dimethyl-1,2,3,4,4a,9,10,10a-octahydrophenanthrene-1-carboxylic acid]
Effects on HL-1 cells Mean (membrane potential) (HL-1 cells): −9.3 mV
effect on firing frequency of HL-1 cells (HL-1 cells): reduced the frequency; also recorded: frequency is reduced
effect on membrane potential of HL-1 cells (HL-1 cells): hyperpolarized the membrane potential; also recorded: interspike membrane potential is made more negative; also recorded: most potent substance on the HL-1 cells
compound-induced G(V) shift (mean±SEM) (3R Shaker K channel; 100 μM): one of the most potent substances on the Shaker K 3R channel
G(V) shift (3R Shaker K channel; 100 μM): −28.1 mV
Effects on K channel Mean ± SEM (3R Shaker K channel): −28.1 ± 1.7 mV

C[C@]1(C(=O)O)CCC[C@]2(C)c3cc(O)ccc3CC[C@@H]12 [PoCA, podocarpic acid, reference compound]
ΔG(V) of representative G(V) curves (single examples) (3R Shaker K channel; 100 μM): +0.1 mV
relative current amplitude (3R Shaker K channel; 100 μM, pH 7.4): 1.0 times
G(V) shift for WT (WT Shaker K channel): not significantly different from the 3R Shaker K channel

CC/C=C\C/C=C\C/C=C\C/C=C\C/C=C\C/C=C\CCC(=O)O [DHA]
G(V) shift for WT (WT Shaker K channel): −6.0 mV

C=C[C@@]1(C)C=C2CC[C@@H]3[C@](C)(CCC[C@@]3(C)C(=O)O)[C@H]2CC1 [PiMA, pimaric acid, reference compound]
compound-induced G(V) shift (mean±SEM) (3R Shaker K channel; 100 μM): −10.4±0.8 mV
ΔG(V) of representative G(V) curves (single examples) (3R Shaker K channel; 100 μM): −10.8 mV
relative current amplitude (3R Shaker K channel; 100 μM, pH 7.4): 2.4 times
G(V) shift for WT (WT Shaker K channel): much smaller effects on WT compared to the 3R Shaker K channel

CC(C)c1ccc2c(c1Br)CCC1[C@](C)(C(=O)O)CCC[C@]21C (stereo partly drawn) [Wu26, (1R,4aS)-8-bromo-7-isopropyl-1,4a-dimethyl-1,2,3,4,4a,9,10,10a-octahydrophenanthrene-1-carboxylic acid]
Effects on HL-1 cells Mean (membrane potential) (HL-1 cells): −4.7 mV
G(V) shift (3R Shaker K channel; 100 μM): −21.8 mV
Effects on K channel Mean ± SEM (3R Shaker K channel): −21.8 ± 0.8 mV

C=C[C@@]1(C)CC[C@H]2C(=CC[C@@H]3[C@]2(C)CCC[C@@]3(C)C(=O)O)C1 [Iso-PiMA, isopimaric acid, reference compound]
compound-induced G(V) shift (mean±SEM) (3R Shaker K channel; 100 μM): −15.9±1.8 mV
ΔG(V) of representative G(V) curves (single examples) (3R Shaker K channel; 100 μM): −20.0 mV
relative current amplitude (3R Shaker K channel; 100 μM, pH 7.4): 5.7 times
G(V) shift for WT (WT Shaker K channel): much smaller effects on WT compared to the 3R Shaker K channel

C=CCO/N=C1\CC2[C@](C)(C(=O)O)CCC[C@]2(C)c2ccc(C(C)C)cc21 (stereo partly shown) [Compound K8]
Effects on HL-1 cells Mean (membrane potential) (HL-1 cells): −3.6 mV
compound-induced G(V) shift (mean±SEM) (3R Shaker K channel; 100 μM): −17.8±1.9 mV
effect on G(V) shift / current compared with DHAA (3R Shaker K channel; C7-modified DHAA, 100 μM, pH 7.4): significantly increased the effect
G(V) shift (3R Shaker K channel; 100 μM): −17.8 mV
Effects on K channel Mean ± SEM (3R Shaker K channel): −17.8 ± 1.9 mV
relative current amplitude (3R Shaker K channel; 100 μM, pH 7.4): 7.6 times

CC(C)c1ccc2c(c1)CC[C@H]1[C@](C)(C(=O)O)CCC[C@]21C [DHAA, dehydroabietic acid]
Kd (3R Shaker K channel): 89 µM
pKa (3R Shaker K channel; Drosophila melanogaster, from pH dependence of G(V) shift, 100 μM): 7.3
pKa (WT Shaker K channel; Drosophila melanogaster, from pH dependence of G(V) shift): 7.2

C=Cc1cc2c(cc1C(C)C)CCC1[C@](C)(C(=O)O)CCC[C@]21C (stereo partly drawn) [Wu78, (1R,4aS)-7-isopropyl-1,4a-dimethyl-6-vinyl-1,2,3,4,4a,9,10,10a-octahydrophenanthrene-1-carboxylic acid]
G(V) shift (3R Shaker K channel; 100 μM): −13.2 mV

CC(C)c1c(Cl)cc2c(c1Cl)CC[C@H]1[C@](C)(C(=O)O)CCC[C@]21C [Wu27]
compound-induced G(V) shift (mean±SEM) (3R Shaker K channel; 100 μM): −5.9±0.4 mV
ΔG(V) of representative G(V) curves (single examples) (3R Shaker K channel; 100 μM): −6.1 mV
G(V) shift (3R Shaker K channel; 100 μM): −5.9 mV

CC(C)c1ccc2c(c1-c1ccccc1)CC[C@H]1[C@](C)(C(=O)O)CCC[C@]21C [Wu124]
G(V) shift (3R Shaker K channel; 100 μM): −0.4 mV

CC(C)c1ccc2c(c1Cl)CCC1[C@](C)(C(=O)O)CCC[C@]21C (stereo partly drawn) [Wu14, (1R,4aS)-8-chloro-7-isopropyl-1,4a-dimethyl-1,2,3,4,4a,9,10,10a-octahydrophenanthrene-1-carboxylic acid]
G(V) shift (3R Shaker K channel; 100 μM): −17.5 mV

CC(C)c1cc2c(cc1I)[C@@]1(C)CCC[C@@](C)(C(=O)O)C1C/C2=N\O (stereo partly drawn) [Wu86, (1R,4aS,E)-9-(hydroxyimino)-6-iodo-7-isopropyl-1,4a-dimethyl-1,2,3,4,4a,9,10,10a-octahydrophenanthrene-1-carboxylic acid]
G(V) shift (3R Shaker K channel; 100 μM): −21.0 mV

CC(C)c1cc2c(cc1F)[C@@]1(C)CCC[C@@](C)(C(=O)O)[C@@H]1CC2 [Wu108, (1R,4aS,10aR)-6-fluoro-7-isopropyl-1,4a-dimethyl-1,2,3,4,4a,9,10,10a-octahydrophenanthrene-1-carboxylic acid]
G(V) shift (3R Shaker K channel; 100 μM): −10.4 mV

C=CCO/N=C1\CC2[C@](C)(C(=O)O)CCC[C@]2(C)c2cc(Br)c(C(C)C)cc21 (stereo partly drawn) [Wu33, (1R,4aS,E)-6-bromo-9-((allyloxy)imino)-7-isopropyl-1,4a-dimethyl-1,2,3,4,4a,9,10,10a-octahydrophenanthrene-1-carboxylic acid]
G(V) shift (3R Shaker K channel; 100 μM): −24.5 mV

CC(C)c1ccc2c(c1Br)C(=NOCc1ccccc1)CC1C(C)(C(=O)O)CCCC21C (stereo not shown) [Wu89]
G(V) shift (3R Shaker K channel; 100 μM): −5.2 mV

CC(C)c1cc2c(cc1C1CC1)[C@@]1(C)CCC[C@@](C)(C(=O)O)C1CC2=O (stereo partly drawn) [Wu121, (1R,4aS)-6-cyclopropyl-7-isopropyl-1,4a-dimethyl-9-oxo-1,2,3,4,4a,9,10,10a-octahydrophenanthrene-1-carboxylic acid]
G(V) shift (3R Shaker K channel; 100 μM): −6.7 mV

CC(C)c1ccc2c(c1Br)C(=O)CC1[C@](C)(C(=O)O)CCC[C@]21C (stereo partly shown) [Wu73]
G(V) shift (3R Shaker K channel; 100 μM): −5.8 mV

CC=Cc1cc2c(cc1C(C)C)CCC1[C@](C)(C(=O)O)CCC[C@]21C (stereo partly shown) [Wu84]
G(V) shift (3R Shaker K channel; 100 μM): −0.2 mV
